Laboratory results from patent publication US6696417B1, “Skin and hair darkening composition” (Chesebrough-Pond's USA Co., division of Conopco, Inc., priority 1997, dated 2004).

Legend:
tyrosinase [1] = assay: In vitro enhancement of melanin formation (Example 3); type: biochemical; conditions: 18 nmoles polyamino acid; DL-DOPA, 20 nmoles lysozyme, 0.45 mg tyrosinase, acetate buffer pH 5.0; absorbance at 400 nm; control 0.120
Experimental: (§1) The assay conditions for the formation of melanin under in vitro conditions are as follows.
The control assay mixture contained 5 mmoles of DL-DOPA (Dihydroxy phenyl alanine), lysozyme 20 nmoles and 0.45 mg of tyrosinase in acetate buffer pH 5.0 in a test tube. In the experimental set 18 nmoles of the polyglutamate, a polyamino acid sequence with pI 2.5 or polyarginine pI 10.9 or polylysine pI 11.0 was used in addition to the other ingredients as defined in the control. The melanin formed was washed with the buffer, suspended in 1 N sodium hydroxide and dissolved by heating the sample at 60° C. for 5 minutes. The absorbance was measured at 400 nm.

tyrosinase [2] = assay: In vitro enhancement of melanin formation (Example 1); type: biochemical
Text: as §1
The control assay mixture contained 5 pmoles of DL-DOPA (Dihydroxy phenyl alanine), 20nmoles lysozyme and 3.2 units of tyrosinase in acetate buffer pH 5.0 in a test tube. A unit is defined as the amount of tyrosinase needed to convert 1 nmol DOPA in one minute. In the experimental set 11 nmoles of polylysine, a polyamino acid sequence with pI 11.0, was used in addition to the other ingredients as defined in the control. The melanin formed was washed with the acetate buffer, suspended in 1N sodium hydroxide and dissolved by heating the sample at 60° C. for 5 minutes. The absorbance was measured at 400 nm.

Substance | Melanin formed A 400 (tyrosinase [1]) | Melanin formed A 400 (tyrosinase [2]; 11 nmoles polyamino acid, DL-DOPA, 20 nmoles lysozyme, 3.2 units tyrosinase, acetate buffer pH 5.0, absorbance at 400 nm, control 0.120) | melanin production (in words) (tyrosinase [2]; in presence of polylysine versus control, pH 5)
polyarginine | 0.182 | – | –
polyglutamate [reference compound] | 0.048 | – | –
polylysine | 0.168 | 0.168 | significantly enhanced
